From PubChem BioAssay (NCI)
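Five concentrations, 48 hours, 96-well plates. Abbreviation: GI50, concentration required for 50% inhibition of growth. TGI: total growth inhibition.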

Experiments:
Experiment in all cases: inhibition of tumour cell growth, NCI panel, 48 h
SW-620 colon = system: SW-620 colon
SN12C renal = system: SN12C renal
U251 CNS = system: U251 CNS
PC-3 prostate = system: PC-3 prostate
HS 578T breast = system: HS 578T breast
NCI-H522 lung = system: NCI-H522 lung
HCT-116 colon = system: HCT-116 colon
COLO 205 colon = system: COLO 205 colon
IGROV1 ovarian = system: IGROV1 ovarian
UO-31 renal = system: UO-31 renal
HT29 colon = system: HT29 colon
NCI-H460 lung = system: NCI-H460 lung
OVCAR-3 ovarian = system: OVCAR-3 ovarian
HCT-15 colon = system: HCT-15 colon
NCI-H23 lung = system: NCI-H23 lung
MALME-3M melanoma = system: MALME-3M melanoma
K-562 leukemia = system: K-562 leukemia
OVCAR-8 ovarian = system: OVCAR-8 ovarian
NCI/ADR-RES ovarian = system: NCI/ADR-RES ovarian
SNB-75 CNS = system: SNB-75 CNS
CAKI-1 renal = system: CAKI-1 renal
CCRF-CEM leukemia = system: CCRF-CEM leukemia
UACC-257 melanoma = system: UACC-257 melanoma
SK-MEL-28 melanoma = system: SK-MEL-28 melanoma
OVCAR-5 ovarian = system: OVCAR-5 ovarian
BT-549 breast = system: BT-549 breast
EKVX NSCLC = system: EKVX NSCLC
SR leukemia = system: SR leukemia
UACC-62 melanoma = system: UACC-62 melanoma

Work on `COc1cccc2c1nc1cccc(OC)c1[n+]2[O-]` yielded a GI50 (SW-620 colon) of 3 µM, a TGI (SW-620 colon) of 15.9 µM and a GI50 (SN12C renal) of 4.15 µM. It also gave a TGI (SN12C renal) of 16.3 µM, a GI50 (U251 CNS) of 6.83 µM and a TGI (U251 CNS) of 21.3 µM. For the same compound, the GI50 (PC-3 prostate) was 13.3 µM, the TGI (PC-3 prostate) was 37 µM and the GI50 (HS 578T breast) was 5.23 µM. For the same compound, the TGI (HS 578T breast) was 31.2 µM, the GI50 (NCI-H522 lung) was 3.98 µM and the TGI (NCI-H522 lung) was 18.1 µM. For the same compound, the GI50 (HCT-116 colon) was 3.64 µM, the TGI (HCT-116 colon) was 16.9 µM and the GI50 (COLO 205 colon) was 10.9 µM. For the same compound, the TGI (COLO 205 colon) was 26.7 µM, the GI50 (IGROV1 ovarian) was 2.35 µM and the TGI (IGROV1 ovarian) was 15.9 µM. It also gave a GI50 (UO-31 renal) of 3.07 µM, a TGI (UO-31 renal) of 15.6 µM and a GI50 (HT29 colon) of 1.55 µM. The TGI (HT29 colon) was 13.9 µM, the GI50 (NCI-H460 lung) was 2.76 µM and the TGI (NCI-H460 lung) was 10.7 µM. It also gave a GI50 (OVCAR-3 ovarian) of 15.7 µM, a TGI (OVCAR-3 ovarian) of 39.2 µM and a GI50 (HCT-15 colon) of 2.93 µM. The TGI (HCT-15 colon) was 12.7 µM, the GI50 (NCI-H23 lung) was 2.56 µM and the TGI (NCI-H23 lung) was 18.9 µM. For the same compound, the GI50 (MALME-3M melanoma) was 12.8 µM, the TGI (MALME-3M melanoma) was 30.3 µM and the GI50 (K-562 leukemia) was 11.5 µM. For the same compound, the TGI (K-562 leukemia) was 26.6 µM, the GI50 (OVCAR-8 ovarian) was 4.4 µM and the TGI (OVCAR-8 ovarian) was 25 µM. The GI50 (NCI/ADR-RES ovarian) was 5.51 µM, the TGI (NCI/ADR-RES ovarian) was 28.4 µM and the GI50 (SNB-75 CNS) was 2.49 µM. The TGI (SNB-75 CNS) was 14.5 µM, the GI50 (CAKI-1 renal) was 2.44 µM and the TGI (CAKI-1 renal) was 10.4 µM. The GI50 (CCRF-CEM leukemia) was 2.35 µM, the TGI (CCRF-CEM leukemia) was 13.3 µM and the GI50 (UACC-257 melanoma) was 13.1 µM. The TGI (UACC-257 melanoma) was 35 µM, the GI50 (SK-MEL-28 melanoma) was 6.31 µM and the TGI (SK-MEL-28 melanoma) was 20.2 µM. It also gave a GI50 (OVCAR-5 ovarian) of 27.8 µM, a TGI (OVCAR-5 ovarian) of 93 µM and a GI50 (BT-549 breast) of 5.94 µM. The TGI (BT-549 breast) was 28.2 µM, the GI50 (EKVX NSCLC) was 13.7 µM and the TGI (EKVX NSCLC) was 30.9 µM. It also gave a GI50 (SR leukemia) of 0.568 µM, a TGI (SR leukemia) of 4.17 µM and a GI50 (UACC-62 melanoma) of 3.35 µM.
